The results in this text go back to patent publication US9562084B2, “Peptides derived from NCAPG2 and their use” (NATIONAL CANCER CENTER, priority 2014, dated 2017).

Where a SMILES comes first, the peptide text is derived from it. [ ]: non-standard residue; d: D form. pT = C[C@@H](OP(=O)(O)O)[C@H](N)C(=O)O

In experiment [1] the target is T1, human PLK1-PBD (371-594) (Homo sapiens, UniProt P53350).
T1 construct: The human PLK1-PBD (371-594) was amplified by PCR; GST (N, cleaved yes); made in house; host or cells: E. coli Rosetta2(DE3)pLysS
T1 sequence (P53350 371-594): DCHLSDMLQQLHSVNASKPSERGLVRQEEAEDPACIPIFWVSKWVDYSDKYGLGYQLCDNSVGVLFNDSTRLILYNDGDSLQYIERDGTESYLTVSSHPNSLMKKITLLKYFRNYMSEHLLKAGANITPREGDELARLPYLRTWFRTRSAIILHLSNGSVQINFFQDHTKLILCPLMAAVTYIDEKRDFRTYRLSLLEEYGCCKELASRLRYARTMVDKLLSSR
The experiment can be described thus: Fluorescence polarisation binding assay for the PBD of PLK1. The note with it: FITC-labelled peptide 10 nM, protein 0 to 4 μM. As for the experimental part: The human PLK1-PBD (371-594) was amplified by PCR and cloned into the pGEX6p-1 vector using the EcoRI and XhoI restriction enzyme sites. The protein was overexpressed in E. coli Rosetta2(DE3)pLysS cells (Novagen). The cells were grown at 37° C. in 3 L of Terrific Broth medium to an OD600 of 0.6, and recombinant protein expression was induced with 0.1 mM isopropyl β-D-thiogalactopyranoside (IPTG) at 20° C. The cells were further grown at 20° C. for 20 hr after IPTG induction. The purification methods were similar to methods that have been previously reported (Cheng, K. Y., et al. The crystal structure of the human polo-like kinase-1 polo box domain and its phospho-peptide complex. EMBO J 22, 5757-68 (2003)). Briefly, the cell pellet was resuspended in ice-cold HBS buffer (10 mM HEPES pH 7.5, 200 mM NaCl, 3.4 mM EDTA, 0.01% (v/v) 1-thioglycerol) and homogenized by sonication. After sonication, the cell debris was centrifuged and supernatant was applied to GST Sepharose resin (GE Healthcare). After extensive washing with HBS buffer, protein was eluted with HBS buffer supplemented with 20 mM reduced glutathione. PreScission protease (GE Healthcare) was added to eluted protein in order to remove the fused GST and the cleavage product was diluted and re-passed through GST Sepharose column. The flow through was collected and applied to Superdex 75 prep grade column (GE Healthcare) equilibrated with HBS buffer. The purified protein was concentrated to 6 mg/ml and used for fluorescence polarization binding assay or crystal screening.
For the fluorescence polarisation binding assay, FITC-labelled 1010pT (GVLSpTLI) or 1010T (GVLSTLI) (SEQ ID NO: 8) peptide was mixed with purified PBD and incubated in a buffer containing 10 mM HEPES (pH7.5), 50 mM NaCl, 1 mM EDTA, 1 mM DTT, and 0.0025% (v/v) Tween 20. The final protein concentrations ranged from 0 to 4 μM, and the final peptide concentration was 10 nM. Fluorescence polarisation was analysed 30 min after mixing the peptide and proteins in a 96-well plate using a VERSAmax microplate reader (Molecular Devices). Binding curves were fitted using GraphPad Prism software (GraphPad Software).
The human PLK1-PBD (371-594), PLK2-PBD (451-685) and PLK3-PBD (412-646) genes were cloned into pGEX6p-1 vector using EcoRI/XhoI restriction sites. […] The purified PLK-PBD proteins were concentrated and used for the fluorescence polarization binding assay.
For the fluorescence polarization binding assay, each fluorescein isothiocyanate (FITC)-labeled 1010pT (GVLSpTLI), 1010T (GVLSTLI), 1010E (GVLSELI), or 1010D (GVLSDLI) peptide was mixed with purified PLK1, PLK2 or PLK3 and incubated in a buffer containing 10 mM HEPES (pH 7.5), 50 mM NaCl, 1 mM EDTA, 1 mM DTT and 0.0025% (v/v) Tween 20. […]
Background: In fluorescence polarisation assays a small probe gives low polarisation when free and higher when bound to something large.

Experiment [2] has as its target T2, human PLK2-PBD (451-685) (Homo sapiens, UniProt Q9NYY3).
T2 construct: PLK2-PBD (451-685); GST (N, cleaved yes); made in house; host or cells: E. coli Rosetta2 (DE3) pLysS
T2 sequence (Q9NYY3 451-685): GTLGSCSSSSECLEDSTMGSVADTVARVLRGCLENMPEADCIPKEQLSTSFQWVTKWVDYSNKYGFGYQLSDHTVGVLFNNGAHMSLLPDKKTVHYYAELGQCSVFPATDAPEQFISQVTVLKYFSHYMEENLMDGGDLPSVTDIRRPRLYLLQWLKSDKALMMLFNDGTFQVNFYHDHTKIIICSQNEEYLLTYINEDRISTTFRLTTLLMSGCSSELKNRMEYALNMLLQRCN
The experiment can be described thus: Fluorescence polarization binding assay, PLK2-PBD. The settings on record: FITC-labelled peptide 10 nM, protein 0 to 4 uM. How it is done: (§1) The human PLK1-PBD (371-594), PLK2-PBD (451-685) and PLK3-PBD (412-646) genes were cloned into pGEX6p-1 vector using EcoRI/XhoI restriction sites. Proteins were over expressed in E. coli strain Rosetta2 (DE3) pLysS. The cells were grown in Terrific Broth medium to an OD600 of 0.6 at 37° C. and recombinant proteins were induced with 0.1 mM isopropyl b-D-thiogalactopyranoside (IPTG) at 25° C. for PLK2 and 20° C. for PLK1 and PLK3, respectively. The cells were further grown at 25° C. (PLK2) or 20° C. (PLK1 and PLK3) for 20 h after IPTG induction. Each cell pellet was lysed with each PLK Binding buffer as described below. […] The purified PLK-PBD proteins were concentrated and used for the fluorescence polarization binding assay.
(§2) For the fluorescence polarization binding assay, each fluorescein isothiocyanate (FITC)-labeled 1010pT (GVLSpTLI), 1010T (GVLSTLI), 1010E (GVLSELI), or 1010D (GVLSDLI) peptide was mixed with purified PLK1, PLK2 or PLK3 and incubated in a buffer containing 10 mM HEPES (pH 7.5), 50 mM NaCl, 1 mM EDTA, 1 mM DTT and 0.0025% (v/v) Tween 20. […] Fluorescence polarization was analyzed 30 min after mixing the peptide and proteins in a 96-well plate using an INFINTE 200 PRO (Tecan). […]

Experiment [3] has as its target T3, human PLK3-PBD (412-646) (Homo sapiens, UniProt Q9H4B4).
T3 construct: PLK3-PBD (412-646); GST (N, cleaved yes); made in house; host or cells: E. coli Rosetta2 (DE3) pLysS
T3 sequence (Q9H4B4 412-646): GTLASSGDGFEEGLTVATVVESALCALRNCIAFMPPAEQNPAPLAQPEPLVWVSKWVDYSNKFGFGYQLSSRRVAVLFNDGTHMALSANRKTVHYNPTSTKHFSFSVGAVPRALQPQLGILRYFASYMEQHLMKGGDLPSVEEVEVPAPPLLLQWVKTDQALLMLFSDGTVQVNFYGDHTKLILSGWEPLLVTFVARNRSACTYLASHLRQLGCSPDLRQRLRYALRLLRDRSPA
As to the kind of experiment: Fluorescence polarization binding assay, PLK3-PBD. The settings on record: FITC-labelled peptide 10 nM, protein 0 to 4 uM. As for the experimental part:
as §1, §2

For experiment [4], the system named is C. elegans. As to the kind of experiment: Embryonic mitosis and development after nocodazole treatment of worms. The note with it: nocodazole alone, without capg-2 RNAi. In kind it is in vivo. How it is done: C. elegans were cultivated on NGM plates at 20° C. as a standard culture method (Brenner, S. Genetics 77, 71-94 (1974)). The capg-2 RNAi clone was obtained from Dr. J. Ahringer's bacteria-feeding RNAi library, which was a kind gift from Dr. J. Lee (Seoul National University). The wild-type N2 strain was used for measuring embryo lethality when capg-2 RNAi was treated with nocodazole. RW10006 (HIS-72::GFP), XA3501 (GFP::HIS-11 and GFP::TBB-2), JG479 (NPP-1::GFP, mCherry::HIS-58 and GFP::TBB-2) and SA17(GFP::PLK-1) were used to determine the effects of capg-2 knockdown on mitosis. JG479 was generated by crossing XA3501 and OCF3 (NPP-1::GFP and mCherry::HIS-58). HIS-72 is histone 3, and TBB-2 is β-tubulin. Both HIS-11 and HIS-58 are histone 2B proteins (www.wormbase.org). Most strains were provided by the CGC, which is funded by the NIH Office of Research Infrastructure Programs (P40 OD010440). For capg-2 RNA interference, L4 worms were transferred to the RNAi plate, and the F1 embryos were observed. The HT115 E. coli strain, which contains the empty RNAi vector (L4440), was used as the control. […] The worms were removed after laying eggs for 12 hours, and the dead embryos were counted the next day. […]

Consider `CC[C@H](C)[C@H](NC(=O)[C@H](CC(C)C)NC(=O)[C@@H](NC(=O)[C@H](CO)NC(=O)[C@H](CC(C)C)NC(=O)[C@@H](NC(=O)CN)C(C)C)[C@@H](C)OP(=O)(O)O)C(N)=O` [1010pT, GVLSpTLI] (H-GVLS[pT]LI-NH2; N-terminus and C-terminus assumed), for which the results for the “binding to PLK1-PBD (in words)” value in experiment [1] and in experiment [1] (listed as GVLS-pT-LI) were “specifically binds” and “interacts strongly”, respectively. For the same molecule, the “binding to PLK2-PBD (in words)” value in experiment [2] is “did not bind”. Besides, the “binding to PLK3-PBD (in words)” value in experiment [3] is “did not bind”.
`COC(=O)Nc1nc2ccc(C(=O)c3cccs3)cc2[nH]1` [Nocodazole, nocodazole]: the “effect on mitosis of embryos” value in experiment [4] was “did not directly affect mitosis”.
